The values that follow come from patent US20060280723A1 (priority 2003, published 2006).

Data set [1] has as its system SARS-HCoV, strain Frankfurt-1.
The next data set relates to Semliki Forest Virus. In words: Protection of Vero E6 cells from Semliki Forest Virus cytopathic effect (crystal violet). The class given is cell-based, Semliki Forest Virus (SFV). Here is the method: Vero E6 cells were seeded in 96-well plate, at a density of 10000 cells per well. […] Media was removed from cells, and cells were washed in 1× PBS, then fixed for 10 minutes at room temperature in 4% paraformaldehyde in PBS. Paraformaldehyde was removed and cells were stained with 0.2% crystal violet in 2% ethanol for 10 minutes at room temperature. Stained plates were washed and degree of colouration was quantified at 630 nm using an ELISA reader. Triplicate data is presented in graph format (FIG. 2).
A general note: Damage to the host cells serves as the signal in cytopathic effect assays.

Another data set concerns SARS-HCoV 2003VA2774. Format: cell-based, SARS human coronavirus (SARS-HCoV).
For data set [2], the system named is Vero E6 cells.
Data set [3] relates to SARS-HCoV. The following applies: Lee et al., 2003 and Poutanen et al.; cited from earlier work.
The subject of data set [4] is SARS-HCoV. The following applies: literature; cited from earlier work.
Data set [5] relates to Vero E6 cells. The data set is described as follows: Cytotoxicity on Vero E6 cells without viral challenge. Format: cell-based, African Green Monkey. Particulars: three days, inverted microscope. How it is done: To determine cytotoxicity, 100 microlitres of serial 10-fold dilutions of each treatment were incubated with 100 microlitres of Vero E6 cells giving a final cell count of 20,000 cells per well in a 96-well plate, without viral challenge.

For data set [6], the system named is 'common cold' coronaviruses. Particulars: laboratory tests; cited from earlier work.
The mark [7] stands for this setting: 10^4 pfu/well, MOI 0.5, Vero E6 cells.

Where two headings read alike, the source gives them in different places.

Regarding “Intron A: recombinant alpha IFN product from Schering Plough (IFN-alpha 2b)”, in data set [1], the “IC50 Exp. Type 1, 10 TCID50” value was above 3.125 IU/ml; the “IC50 Exp. Type 1, 100 TCID50” value is recorded as above 3.125 IU/ml; the “IL50 Exp. Type 2, 10 TCID50” value is on record as above 3.125 IU/ml; the “IL50 Exp. Type 2, 100 TCID50” value is listed as above 3.125 IU/ml. Besides, the Loss of protection entry in the data set on Semliki Forest Virus (at 39 IU/ml) was “equivalent loss of protection”. Also, in the data set with Semliki Forest Virus (at 625 IU/ml), the Degree of protection result was “same degree of protection”. Further, in the data set with SARS-HCoV 2003VA2774, the “Concentration up to which cells were not fully protected from SARS-HCoV infection” value is above 100000 IU/ml and the “Inhibition of cytopathic effect” value is on record as “did not show significant inhibition”. Also, the “Tendency to increase baseline levels in the cytotoxicity assay” value in the data set with Vero E6 cells [2] is “no similar tendency”.
Consider `CCOC(=O)C1=C[C@@H](OC(CC)CC)[C@H](NC(C)=O)[C@@H](N)C1` [Oseltamivir], for which, in the data set on SARS-HCoV [3], the “Therapeutic benefit in SARS-HCoV infection” value is on record as “has not shown any therapeutic benefit”.
Consider `NC(=O)c1ncn([C@@H]2O[C@H](CO)[C@@H](O)[C@H]2O)n1` [Ribavirin], for which the “Efficacy against SARS-HCoV in vitro” value with SARS-HCoV [4] was “negative results”. Moreover, in the data set on Vero E6 cells [5], the “Cytotoxicity at inhibitory concentration” value is on record as “showed cytotoxicity”. Moreover, the “CIA100 (reached: Yes)” value in the data set with SARS-HCoV 2003VA2774 (setting [7]) is “Yes”. Further, the “Concentration at which complete cytopathic effect” value in the data set on SARS-HCoV 2003VA2774 (setting [7]) is reported as 5,000 μg/ml. For the same molecule, the “Inhibition of cytopathic effect” value in the data set on SARS-HCoV 2003VA2774 (cytopathic endpoint assay, Vero E6 cells) is “inhibitory activity at all viral titres”; in the data set with SARS-HCoV 2003VA2774 (high viral challenge 10^4 pfu/well, MOI 0.5) it was “Complete inhibition”. Moreover, the “CIA100 (concentration inhibiting cytopathic effect in all four set-ups)” value in the data set on SARS-HCoV 2003VA2774 (virus load 100 pfu/well) was 500 µg/mL; in the data set with SARS-HCoV 2003VA2774 (virus load 1,000 pfu/well) it was 5,000 μg/ml.

B1: Cystatin C: a protease inhibitor found in human blood (protein, UniProt P01034 27-146, looked up)
Cystatin-C: SSPGKPPRLVGGPMDASVEEEGVRRALDFAVGEYNKASNDMYHSRALQVVRARKQIVAGVNYFLDVELGRTTCTKTQPNLDNCPFHDQPHLKRKAFCSFQIYAVPWQGTMTLSKSTCQDA
As for B1, in data set [6], the “Replication of 'common cold' coronaviruses” value is “found to block replication”.
